target: T1, human Fatty Acid Synthase (Homo sapiens, UniProt P49327); assay: Human FAS enzyme assay (decrease in NADPH fluorescence); type: biochemical; conditions: % inhibition at a concentration of 100 micromolar
T1 construct: made in house
How it was run: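 Readout: decrease in NADPH fluorescence (340 nm ex, 460 nm em) after 60 min at RT, background-subtracted against a read taken before substrate. Substrate mix contained 500 μM malonyl-CoA and 150 μM acetyl-CoA. It was added after 15 min enzyme (0.4 μg in-house human FAS)–compound–NADPH preincubation in Tris pH 7.5 buffer; % inhibition was fitted to IC50.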

T1 sequence (P49327 whole entry): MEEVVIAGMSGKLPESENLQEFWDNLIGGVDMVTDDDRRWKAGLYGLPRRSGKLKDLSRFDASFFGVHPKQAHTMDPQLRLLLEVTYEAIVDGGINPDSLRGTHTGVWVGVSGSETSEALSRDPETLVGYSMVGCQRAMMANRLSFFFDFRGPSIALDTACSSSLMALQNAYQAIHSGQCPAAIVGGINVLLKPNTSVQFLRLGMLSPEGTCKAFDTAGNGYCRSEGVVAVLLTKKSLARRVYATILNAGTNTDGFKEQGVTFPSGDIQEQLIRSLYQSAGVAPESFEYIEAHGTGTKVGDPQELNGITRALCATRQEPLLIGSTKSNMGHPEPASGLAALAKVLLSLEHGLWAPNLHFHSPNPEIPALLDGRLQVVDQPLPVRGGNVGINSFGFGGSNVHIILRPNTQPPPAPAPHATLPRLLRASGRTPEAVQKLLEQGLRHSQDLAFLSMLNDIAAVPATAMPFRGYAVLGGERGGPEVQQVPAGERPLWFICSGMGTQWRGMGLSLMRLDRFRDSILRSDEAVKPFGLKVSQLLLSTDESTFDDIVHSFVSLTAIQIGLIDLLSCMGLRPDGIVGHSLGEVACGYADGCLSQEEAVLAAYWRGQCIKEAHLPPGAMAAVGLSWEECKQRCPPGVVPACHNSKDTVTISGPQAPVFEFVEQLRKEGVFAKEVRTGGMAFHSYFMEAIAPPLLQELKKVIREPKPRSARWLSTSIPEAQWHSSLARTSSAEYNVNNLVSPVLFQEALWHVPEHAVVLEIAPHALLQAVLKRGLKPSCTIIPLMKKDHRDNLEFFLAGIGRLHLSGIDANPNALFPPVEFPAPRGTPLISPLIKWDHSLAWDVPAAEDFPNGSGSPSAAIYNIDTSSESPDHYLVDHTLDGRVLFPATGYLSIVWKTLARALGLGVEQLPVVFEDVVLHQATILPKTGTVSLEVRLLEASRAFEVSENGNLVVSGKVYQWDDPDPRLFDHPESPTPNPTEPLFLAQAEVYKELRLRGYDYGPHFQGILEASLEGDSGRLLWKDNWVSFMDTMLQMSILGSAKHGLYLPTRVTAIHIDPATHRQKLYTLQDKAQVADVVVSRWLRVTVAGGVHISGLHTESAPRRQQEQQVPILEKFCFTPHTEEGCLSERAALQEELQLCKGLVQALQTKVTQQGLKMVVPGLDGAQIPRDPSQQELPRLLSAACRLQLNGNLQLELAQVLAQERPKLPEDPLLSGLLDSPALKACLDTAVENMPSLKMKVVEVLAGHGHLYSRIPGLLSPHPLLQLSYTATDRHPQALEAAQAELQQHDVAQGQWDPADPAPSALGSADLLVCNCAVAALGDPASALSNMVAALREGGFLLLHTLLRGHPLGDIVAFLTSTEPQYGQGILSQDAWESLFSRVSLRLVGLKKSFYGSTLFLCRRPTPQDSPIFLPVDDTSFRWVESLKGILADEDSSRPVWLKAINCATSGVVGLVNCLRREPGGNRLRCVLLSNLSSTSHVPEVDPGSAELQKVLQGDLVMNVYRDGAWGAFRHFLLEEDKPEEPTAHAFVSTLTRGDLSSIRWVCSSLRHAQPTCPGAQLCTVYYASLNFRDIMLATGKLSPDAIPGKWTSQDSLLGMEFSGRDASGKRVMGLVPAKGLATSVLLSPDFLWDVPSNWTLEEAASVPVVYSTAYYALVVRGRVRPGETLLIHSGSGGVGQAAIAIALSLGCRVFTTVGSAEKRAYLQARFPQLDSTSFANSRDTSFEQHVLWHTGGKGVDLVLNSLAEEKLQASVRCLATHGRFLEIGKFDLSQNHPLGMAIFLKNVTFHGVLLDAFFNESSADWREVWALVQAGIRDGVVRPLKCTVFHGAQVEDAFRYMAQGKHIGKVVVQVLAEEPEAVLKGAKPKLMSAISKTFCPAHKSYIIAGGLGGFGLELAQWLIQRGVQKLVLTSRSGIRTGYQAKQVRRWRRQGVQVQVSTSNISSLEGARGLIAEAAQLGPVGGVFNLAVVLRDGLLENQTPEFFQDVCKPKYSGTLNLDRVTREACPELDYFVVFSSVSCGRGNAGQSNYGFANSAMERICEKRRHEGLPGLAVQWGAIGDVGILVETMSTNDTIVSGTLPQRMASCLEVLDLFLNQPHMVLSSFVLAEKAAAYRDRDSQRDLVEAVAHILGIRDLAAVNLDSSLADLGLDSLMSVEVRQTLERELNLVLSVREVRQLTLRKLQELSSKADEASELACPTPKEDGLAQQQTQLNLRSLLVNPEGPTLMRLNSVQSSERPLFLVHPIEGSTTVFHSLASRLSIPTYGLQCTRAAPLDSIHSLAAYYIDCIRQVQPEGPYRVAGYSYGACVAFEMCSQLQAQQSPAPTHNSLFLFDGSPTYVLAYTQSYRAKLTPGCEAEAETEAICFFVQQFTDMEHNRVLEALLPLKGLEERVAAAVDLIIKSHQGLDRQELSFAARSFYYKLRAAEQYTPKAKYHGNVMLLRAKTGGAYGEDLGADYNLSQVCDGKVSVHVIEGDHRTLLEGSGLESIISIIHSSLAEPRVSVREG

SMILES | inhibition at 100 µM
CC(=O)NCc1ccc(C2CCN(C(=O)c3ccc(C)c(NS(C)(=O)=O)c3)CC2)cc1 [Example 164, N-[[4-[1-(3-methanesulfonamido-4-methylbenzoyl)piperidin-4-yl]phenyl]methyl]acetamide] | 83%
COC(=O)c1ccccc1S(=O)(=O)Nc1cc(C(=O)N2CCC(c3ccc(C#N)cc3)CC2)ccc1C [Example 108, methyl 2-[[5-[4-(4-cyanophenyl)piperidine-1-carbonyl]-2-methyl-phenyl]sulfamoyl]benzoate] | 78%
Cc1ccc(C(=O)N2CCC(c3ccc(C#N)cc3)CC2)cc1NS(=O)(=O)CC(C)C [Example 64, N-[5-[4-(4-cyanophenyl)piperidine-1-carbonyl]-2-methyl-phenyl]-2-methyl-propane-1-sulfonamide] | 83%
COCCNc1ccc(S(=O)(=O)Nc2cc(C(=O)N3CCC(c4ccc(C#N)cc4)CC3)ccc2C)cn1 [Example 103, N-[5-[4-(4-cyanophenyl)piperidine-1-carbonyl]-2-methyl-phenyl]-6-(2-methoxyethylamino)pyridine-3-sulfonamide] | 98%
Cc1ccc(C(=O)N2CCC(c3ccc(C#N)cc3)CC2)cc1NS(=O)(=O)CS(C)(=O)=O [Example 195, N-[5-[4-(4-cyanophenyl)piperidine-1-carbonyl]-2-methylphenyl]-1-methylsulfonyl-methanesulfonamide] | 72%
COc1ccc(C2CCN(C(=O)c3ccc(C)c(NS(C)(=O)=O)c3)CC2)cc1 [Example 162, N-[5-[4-(4-methoxyphenyl)piperidine-1-carbonyl]-2-methylphenyl]methanesulfonamide] | 86%
Cc1ccc(C(=O)N2CCC(c3ccc(C#N)cc3)CC2)cc1NS(=O)(=O)CC(=O)N1CCOCC1 [Example 88, N-[5-[4-(4-cyanophenyl)piperidine-1-carbonyl]-2-methyl-phenyl]-2-morpholin-4-yl-2-oxo-ethanesulfonamide] | 89%
Cc1ccc(C(=O)N2CCC(c3ccc(C#N)cc3)CC2)cc1NS(=O)(=O)c1cccc(C(=O)NCCO)c1 [Example 84, 3-[[5-[4-(4-cyanophenyl)piperidine-1-carbonyl]-2-methyl-phenyl]sulfamoyl]-N-(2-hydroxyethyl)benzamide] | 92%
CCCS(=O)(=O)NCc1ccc(C2CCN(C(=O)c3ccc(C)c(NS(C)(=O)=O)c3)CC2)cc1 [Example 237, N-[[4-[1-(3-methanesulfonamido-4-methylbenzoyl)piperidin-4-yl]phenyl]methyl]propane-1-sulfonamide] | 85.2%
Cc1ccc(C(=O)N2CCC(c3ccc(C#N)cc3)CC2)cc1NS(=O)(=O)Cc1ccccc1 [Example 4, N-[5-[4-(4-cyanophenyl)piperidine-1-carbonyl]-2-methyl-phenyl]-1-phenyl-methanesulfonamide] | 81%
Cc1ccc(C(=O)N2CCC(c3ccc(C#N)cc3)CC2)cc1NS(=O)(=O)CC#N [Example 212, 1-cyano-N-[5-[4-(4-cyanophenyl)piperidine-1-carbonyl]-2-methylphenyl]methanesulfonamide] | 69%
Cc1ccc(C(=O)N2CCC(c3ccc(C#N)cc3)CC2)cc1NS(=O)(=O)C1CCN(S(=O)(=O)C(C)C)CC1 [Example 119, N-[5-[4-(4-cyanophenyl)piperidine-1-carbonyl]-2-methyl-phenyl]-1-propan-2-ylsulfonyl-piperidine-4-sulfonamide] | 94%
Cc1nc(-c2ccc(C3CCN(C(=O)c4ccc(C)c(NS(C)(=O)=O)c4)CC3)cc2)no1 [Example 167, N-[2-methyl-5-[4-[4-(5-methyl-1,2,4-oxadiazol-3-yl)phenyl]piperidine-1-carbonyl]phenyl]methanesulfonamide] | 87%
CCCCOc1ccc(S(=O)(=O)Nc2ccc(C)c(C(=O)N3CCC(c4ccc(C#N)cc4)CC3)c2)cc1 [Example 198, 4-butoxy-N-[3-[4-(4-cyanophenyl)piperidine-1-carbonyl]-4-methylphenyl]benzene-sulfonamide] | 71%
Cc1ccc(NS(=O)(=O)CC(C)C)cc1C(=O)N1CCC(c2ccc(C#N)cc2)CC1 [Example 57, N-[3-[4-(4-cyanophenyl)piperidine-1-carbonyl]-4-methyl-phenyl]-2-methyl-propane-1-sulfonamide] | 94%
COC(=O)CCS(=O)(=O)Nc1cc(C(=O)N2CCC(c3ccc(C#N)cc3)CC2)ccc1C [Example 144, Methyl 3-[[5-[4-(4-cyanophenyl)piperidine-1-carbonyl]-2-methyl-phenyl]sulfamoyl]propanoate] | 88%
N#Cc1ccc(C2CCN(C(=O)c3cc(NS(=O)(=O)Cc4ccccc4)ccc3F)CC2)cc1 [Example 199, N-[3-[4-(4-cyanophenyl)piperidine-1-carbonyl]-4-fluorophenyl]-1-phenylmethane-sulfonamide] | 79%
Cc1ccc(C(=O)N2CCC(c3ccc(C#N)cc3)CC2)cc1NS(=O)(=O)c1ccccc1C(=O)N1CCOCC1 [Example 111, N-[5-[4-(4-cyanophenyl)piperidine-1-carbonyl]-2-methyl-phenyl]-2-(morpholine-4-carbonyl)benzenesulfonamide] | 80%
COC(=O)CS(=O)(=O)Nc1ccc(C)c(C(=O)N2CCC(c3ccc(C#N)cc3)CC2)c1 [Example 38, methyl 2-[[3-[4-(4-cyanophenyl)piperidine-1-carbonyl]-4-methyl-phenyl]sulfamoyl]acetate] | 83%
Cc1ccc(C(=O)N2CCC(c3ccc(C#N)cc3)CC2)cc1NS(=O)(=O)CCNC(=O)c1ccccc1 [Example 86, N-[2-[[5-[4-(4-cyanophenyl)piperidine-1-carbonyl]-2-methyl-phenyl]sulfamoyl]ethyl]benzamide] | 100%
CCS(=O)(=O)Nc1cc(C(=O)N2CCC(c3ccc(C#N)cc3)CC2)c(C)cc1C [Example 166, N-[5-[4-(4-cyanophenyl)piperidine-1-carbonyl]-2,4-dimethylphenyl]ethanesulfonamide] | 96%

same assay, conditions: compounds excluded from the claims by proviso

SMILES | IC50s in the range of about 0.001 μM to about 30 μM
Cc1ccc(C(=O)N2CCC(c3ccc(CN)cc3)CC2)cc1NS(C)(=O)=O [N-[5-[4-[4-(aminomethyl)phenyl]piperidine-1-carbonyl]-2-methylphenyl]methanesulfonamide] | do not have IC50s in the range of about 0.001 μM to about 30 μM
COc1cccc(C2CCN(C(=O)c3ccc(C)c(NS(C)(=O)=O)c3)CC2)c1 [N-[5-[4-(3-methoxyphenyl)piperidine-1-carbonyl]-2-methylphenyl]methanesulfonamide] | do not have IC50s in the range of about 0.001 μM to about 30 μM
Cc1ccc(C(=O)N2CCC(c3cc(F)c(C#N)c(F)c3)CC2)cc1NS(C)(=O)=O [N-[5-[4-(4-cyano-3,5-difluorophenyl)piperidine-1-carbonyl]-2-methylphenyl]methanesulfonamide] | do not have IC50s in the range of about 0.001 μM to about 30 μM
Cc1ccc(C(=O)N2CCC(c3ccc(C#N)c(C(F)(F)F)c3)CC2)cc1NS(C)(=O)=O [N-[5-[4-[4-cyano-3-(trifluoromethyl)phenyl]piperidine-1-carbonyl]-2-methylphenyl]methanesulfonamide] | do not have IC50s in the range of about 0.001 μM to about 30 μM
